This is an account of results in patent EP1285918A1, “C7 Ester substituted taxanes as antitumor agents” (Florida State University Research Foundation, Inc., priority 2001, dated 2003).

The subject of the assay is HCT116. The assay can be described thus: In Vitro cytotoxicity measured by the cell colony formation assay. The following applies: Homo sapiens, HCT-116; 72 h drug incubation, colonies counted after 7 days; concentration producing 50% inhibition of colony formation; read-out: IN VITRO ID 50 (nm) HCT116. It is filed as cell-based. As to the method: In Vitro cytotoxicity measured by the cell colony formation assay
Four hundred cells (HCT116) were plated in 60 mm Petri dishes containing 2.7 mL of medium (modified McCoy's 5a medium containing 10% fetal bovine serum and 100 units/mL penicillin and […] streptomycin). The cells were incubated in a CO2 incubator at 37 °C for 5 h for attachment to the bottom of Petri dishes. The compounds identified in Example 2 were made up fresh in medium at ten times the final concentration, and then 0.3 mL of this stock solution was added to the 2.7 mL of medium in the dish. The cells were then incubated with drugs for 72 h at 37 ° C. At the end of incubation the drug-containing media were decanted, the dishes were rinsed with 4 mL of Hank's Balance Salt Solution (HBSS), 5 mL of fresh medium was added, and the dishes were returned to the incubator for colony formation. The cell colonies were counted using a colony counter after incubation for 7 days. Cell survival was calculated and the values of ID50 (the drug concentration producing 50% inhibition of colony formation) were determined for each tested compound.
On to `CCC(=O)O[C@H]1C[C@H]2OC[C@@]2(OC(C)=O)[C@H]2[C@H](OC(=O)c3ccccc3)[C@]3(O)C[C@H](OC(=O)[C@H](O)[C@H](C=C(C)C)NC(=O)OCC(C)C)C(C)=C([C@@H](O)C(=O)[C@]12C)C3(C)C` [Compound 5121], for which the IC50 was determined as 21.1 nM.

`CCCC(=O)OC1CC2OCC2(OC(C)=O)C2C(OC(=O)c3ccccc3)C3(O)CC(OC(=O)C(O)C(NC(=O)c4ccccc4)c4cccs4)C(C)=C(C(O)C(=O)C12C)C3(C)C` (centres unmarked) [Compound 4175]: the IC50 is under 10 nM. For `CCC(=O)O[C@H]1C[C@H]2OC[C@@]2(OC(C)=O)[C@H]2[C@H](OC(=O)c3ccccc3)[C@]3(O)C[C@H](OC(=O)[C@H](O)[C@@H](NC(=O)c4cccs4)c4cccs4)C(C)=C([C@@H](O)C(=O)[C@]12C)C3(C)C` [Compound 3479] the value was under 1 nM; for `CCOC(=O)N[C@@H](c1ccco1)[C@@H](O)C(=O)O[C@H]1C[C@@]2(O)[C@@H](OC(=O)c3ccccc3)[C@@H]3[C@]4(OC(C)=O)CO[C@@H]4C[C@H](OC(=O)CC)[C@@]3(C)C(=O)[C@H](O)C(=C1C)C2(C)C` [Compound 3611], under 1 nM. As to `CCC(=O)O[C@H]1C[C@H]2OC[C@@]2(OC(C)=O)[C@H]2[C@H](OC(=O)c3ccccc3)[C@]3(O)C[C@H](OC(=O)[C@H](O)[C@@H](NC(=O)OC(C)(C)C)c4nccs4)C(C)=C([C@@H](O)C(=O)[C@]12C)C3(C)C` [Compound 6363], the IC50 was under 10 nM. With `CCCC(=O)OC1CC2OCC2(OC(C)=O)C2C(OC(=O)c3ccccc3)C3(O)CC(OC(=O)C(O)C(NC(=O)OC(C)(C)C)c4ccco4)C(C)=C(C(O)C(=O)C12C)C3(C)C` (centres unmarked) [Compound 4499] the figure was under 1 nM. For the compound `C/C=C/C(=O)O[C@H]1C[C@H]2OC[C@@]2(OC(C)=O)[C@H]2[C@H](OC(=O)c3ccccc3)[C@]3(O)C[C@H](OC(=O)[C@H](O)[C@@H](NC(=O)OC(C)(C)C)c4cccs4)C(C)=C([C@@H](O)C(=O)[C@]12C)C3(C)C` [Compound 6686], the IC50 was under 1 nM. On to `CCCCC(=O)O[C@H]1C[C@H]2OC[C@@]2(OC(C)=O)[C@H]2[C@H](OC(=O)c3ccccc3)[C@]3(O)C[C@H](OC(=O)[C@H](O)[C@@H](NC(=O)OC(C)(C)CC)c4ccco4)C(C)=C([C@@H](O)C(=O)[C@]12C)C3(C)C` [Compound 6343], for which the IC50 is under 10 nM. With `CCC(=O)O[C@H]1C[C@H]2OC[C@@]2(OC(C)=O)[C@H]2[C@H](OC(=O)c3ccccc3)[C@]3(O)C[C@H](OC(=O)[C@H](O)[C@@H](NC(=O)OC(C)(C)C)C(C)C)C(C)=C([C@@H](O)C(=O)[C@]12C)C3(C)C` [Compound 1434] the figure was under 10 nM; with `CCC(=O)O[C@H]1C[C@H]2OC[C@@]2(OC(C)=O)[C@H]2[C@H](OC(=O)c3ccccc3)[C@]3(O)C[C@H](OC(=O)[C@H](O)[C@@H](NC(=O)OC(C)(C)CC)c4ccco4)C(C)=C([C@@H](O)C(=O)[C@]12C)C3(C)C` [Compound 6212], under 1 nM; with `CCCC(=O)O[C@H]1C[C@H]2OC[C@@]2(OC(C)=O)[C@H]2[C@H](OC(=O)c3ccccc3)[C@]3(O)C[C@H](OC(=O)[C@H](O)[C@@H](NC(=O)OCC(C)C)C4CC4)C(C)=C([C@@H](O)C(=O)[C@]12C)C3(C)C` [Compound 5202], under 10 nM.

With `CCCC(=O)OC1CC2OCC2(OC(C)=O)C2C(OC(=O)c3ccccc3)C3(O)CC(OC(=O)C(O)C(NC(=O)C=C(C)C)c4cccs4)C(C)=C(C(O)C(=O)C12C)C3(C)C` (centres unmarked) [Compound 4283], the IC50 is under 1 nM. With `CCC(=O)OC1CC2OCC2(OC(C)=O)C2C(OC(=O)c3ccccc3)C3(O)CC(OC(=O)C(O)C(NC(=O)c4cccnc4)c4cccs4)C(C)=C(C(O)C(=O)C12C)C3(C)C` (centres unmarked) [Compound 4106], the IC50 was under 10 nM. With `CCCC(=O)O[C@H]1C[C@H]2OC[C@@]2(OC(C)=O)[C@H]2[C@H](OC(=O)c3ccccc3)[C@]3(O)C[C@H](OC(=O)[C@H](O)[C@@H](NC(=O)OC(C)(C)CC)c4ccco4)C(C)=C([C@@H](O)C(=O)[C@]12C)C3(C)C` [Compound 6272] the figure was under 1 nM; with `CCCC(=O)OC1CC2OCC2(OC(C)=O)C2C(OC(=O)c3ccccc3)C3(O)CC(OC(=O)C(O)C(NC(=O)c4cccs4)c4cccs4)C(C)=C(C(O)C(=O)C12C)C3(C)C` (centres unmarked) [Compound 4388], under 1 nM. For `CC(=O)O[C@@]12CO[C@@H]1C[C@H](OC(=O)C(C)C)[C@@]1(C)C(=O)[C@H](O)C3=C(C)[C@@H](OC(=O)[C@H](O)[C@@H](NC(=O)C(C)C)c4ccco4)C[C@@](O)([C@@H](OC(=O)c4ccccc4)[C@H]21)C3(C)C` [Compound 6121] the value was under 10 nM; for `CCCC(=O)O[C@H]1C[C@H]2OC[C@@]2(OC(C)=O)[C@H]2[C@H](OC(=O)c3ccccc3)[C@]3(O)C[C@H](OC(=O)[C@H](O)[C@@H](NC(=O)OC(C)(C)C)C4CC4)C(C)=C([C@@H](O)C(=O)[C@]12C)C3(C)C` [Compound 5080], under 1 nM; for `CCCC(=O)OC1CC2OCC2(OC(C)=O)C2C(OC(=O)c3ccccc3)C3(O)CC(OC(=O)C(O)C(NC(=O)c4ccco4)c4cccs4)C(C)=C(C(O)C(=O)C12C)C3(C)C` (centres unmarked) [Compound 4219], 29 nM. Regarding `CCCC(=O)OC1CC2OCC2(OC(C)=O)C2C(OC(=O)c3ccccc3)C3(O)CC(OC(=O)C(O)C(NC(=O)OCC(C)C)c4ccco4)C(C)=C(C(O)C(=O)C12C)C3(C)C` (centres unmarked) [Compound 4616], the IC50 is under 1 nM. With `CCC(=O)O[C@H]1C[C@H]2OC[C@@]2(OC(C)=O)[C@H]2[C@H](OC(=O)c3ccccc3)[C@]3(O)C[C@H](OC(=O)[C@H](O)[C@@H](NC(=O)c4ccccc4)c4ccsc4)C(C)=C([C@@H](O)C(=O)[C@]12C)C3(C)C` [Compound 3388], the IC50 is under 10 nM.

`CCC(=O)O[C@H]1C[C@H]2OC[C@@]2(OC(C)=O)[C@H]2[C@H](OC(=O)c3ccccc3)[C@]3(O)C[C@H](OC(=O)[C@H](O)[C@@H](NC(=O)OC(C)(C)C)c4cccnc4)C(C)=C([C@@H](O)C(=O)[C@]12C)C3(C)C` [Compound 1372]: the IC50 worked out at 26.1 nM. For `CCCC(=O)OC1CC2OCC2(OC(C)=O)C2C(OC(=O)c3ccccc3)C3(O)CC(OC(=O)C(O)C(NC(=O)OC(C)(C)C)c4ccsc4)C(C)=C(C(O)C(=O)C12C)C3(C)C` (centres unmarked) [Compound 4446], the IC50 is under 1 nM. On to `CCC(=O)O[C@H]1C[C@H]2OC[C@@]2(OC(C)=O)[C@H]2[C@H](OC(=O)c3ccccc3)[C@]3(O)C[C@H](OC(=O)[C@H](O)[C@@H](NC(=O)OCC(C)C)C4CC4)C(C)=C([C@@H](O)C(=O)[C@]12C)C3(C)C` [Compound 5191], for which the IC50 is under 10 nM. Consider `CCC(=O)O[C@H]1C[C@H]2OC[C@@]2(OC(C)=O)[C@H]2[C@H](OC(=O)c3ccccc3)[C@]3(O)C[C@H](OC(=O)[C@H](O)[C@@H](NC(=O)OCC(C)C)c4ccco4)C(C)=C([C@@H](O)C(=O)[C@]12C)C3(C)C` [Compound 3196], for which the IC50 was under 10 nM. With `CCCC(=O)OC1CC2OCC2(OC(C)=O)C2C(OC(=O)c3ccccc3)C3(O)CC(OC(=O)C(O)C(NC(=O)OC(C)C)c4cccs4)C(C)=C(C(O)C(=O)C12C)C3(C)C` (centres unmarked) [Compound 4135], the IC50 was under 1 nM.

`CCC(=O)O[C@H]1C[C@H]2OC[C@@]2(OC(C)=O)[C@H]2[C@H](OC(=O)c3ccccc3)[C@]3(O)C[C@H](OC(=O)[C@H](O)[C@@H](NC(=O)OC(C)(C)C)C4CC4)C(C)=C([C@@H](O)C(=O)[C@]12C)C3(C)C` [Compound 5070]: the IC50 is under 10 nM.
